Tested on: cotton aphids (Aphis gossypil)
Test: Test method 1: foliar spray on cucumber seedlings infested with cotton aphids
Type: in vivo
Details: 200 ppm, spray 10 mL/seedling, counted 5 days after spraying, 25° C.
Procedure: Next, Test Examples are used to show effects of the Present compounds on harmful arthropods. In the following Test Examples, the tests were carried out at 25° C. […] Cucumber (Cucumis sativus) seedlings (on the developmental stage of the second true leaf) are planted in a container and approximately 30 cotton aphids (Aphis gossypil) (all stages of life) are released onto the cucumber seedlings. After 1 day, each of said diluted solutions is sprayed into the seedlings in a ratio of 10 mL/seedling. After additional 5 days, the number of the surviving insects is examined and the controlling value is calculated by the following equation. Controlling value (%)={1-(Cb×Tai)/(Cai×Tb)}×100 wherein the symbols in the equation represent the following meanings. • Cb: Number of the test insects in non-treated area; • Cai: Number of the surviving insects at the time of the investigation in non-treated area; • Tb: Number of the test insects in treated area; • Tai: Number of the surviving insects at the time of the investigation in treated area; Here, the “non-treated area” represents an area where the same treatment procedure as that of the treated area is done except for not using each test compound.

For CCS(=O)(=O)c1c(-n2nc3ccc(C(F)(F)F)cn3c2=O)nc2ccc(C(F)(F)F)cn12 [compound 2], the controlling value was ≥ 90%.
